Results published in patent US6635671B1, “Compounds which affect mRNA stability and uses therefor” (Novation Pharmaceuticals Inc., priority 1998, dated 2003).
Where two headings read alike, the source gives them in different places.

Key:
[1] = test system: THP-1 clone No. 53 (pGL2_Neo / pGL2-Control); experiment: Luciferase reporter gene assay, control clone No. 53 (no instability sequence); format: cell-based, human; set-up: Luciferase reporter gene assay, luciferase activity: unit not given here; settings: for Luciferase reporter gene assay, luciferase activity: clone 53
Description: (§1) In order to obtain a vector for stable integration into THP-1 cells, a XhoI-SalI fragment of the neo resistant gene (expressing aminoglycoside 3′ phosphotransferase) derived from pMCIneo (Stratagene) is subcloned into the SalI site of pGL2Control (Promega). This resulting plasmid was called pGL2_Neo. A 30 bp fragment (containing three tandem AUUUA motifs, based on the IL-Iβ3′UTR sequence) obtained by annealing two complementary synthetic oligonucleotides (see FIG. 1) is subcloned into pGL2 Neo using the PflM1 restriction site.
(§2) The resulting vectors pGL2_Neo30 and pGL2_Neo are transfected into THP-1 cells by electroporation. 10^7 cells/ml in 1.3 mM KH2PO4, 7.36 m.M Na2HPO4, 2.44 mM KCl, 124 mm NaCl, 5 mM glucose, 9.6 μM MgCl2 and 16 μM CaCI2 pH 7.2 are transfected with 20 μg of DNA in a Bio-Rad Gene Pulser (250V, 690 μF and indefinite resistance) using a 0.4 cm cuvette. Cells are subsequently cultured in RPMI medium containing 10%FBS, 2mM L-Gln (L-glutamine), 50 μM 2mercaptoethanol and 600 μg/ml of G418 (geneticin). After transfection of pGL2_Neo30 and pGL2_Neo into THP-1 cells, stable cell lines are obtained by selection for G418 resistance and assayed for luciferase activity. One cell line of each transfection is chosen for further analysis; the pGL2_Neo30 cell line is referred to as clone No. 63 and the pGL2_Neo cell line as clone No. 53. No endogenous luciferase activity could be detected in normal THP-1 cells.
(§3) The transfected human monocytic leukemia cell lines, clones No. 53 and 63 are grown in RPMI medium supplemented with 110 U/ml penicillin, 100 μg/ml streptomycin, 2 mM L-Gln and 2 g/l NaHCO3. Heat-treated FBS (5%) is added before use. The cells are grown to a density of 5×10^5/ml and induced to differentiate with 100 U/ml (final concentration) γIFN. Three hours later, 10 μl of LPS (5 μg/ml final concentration) is added. This time point is designated time 0. Compounds are added at various times after LPS addition as indicated.
(§4) In order to adapt the system to the use of 96 well plates, cells are grown in Packard flat bottom white polystyrene microplates (Cat No.6005180) in RPMI medium lacking phenol red (AMIMED). Cells are plated at 5×10^4/well. After treatment of the cells, luciferase is measured using the Packard Luc Lite system (Cat. No.601691 1) according to the manufacturer's instructions in a final volume of 205 μl. Briefly, to a cell suspension of 5×10^5 cells/ml, γIFN (1000 U/ml Boehringer Mannheim No. 1050494) to a final concentration of 100 U/ml and 0.25% (v/v) Luc Lite Enhancer is added. After a 3 hour incubation LPS (50 μg/ml SIGMA L-8274) is added to give 5 μg/ml final concentration. The cells are then plated at 5×10^4/100 l/well into flat bottom white polystyrene microplates (Packard, Cat No. 6005180) and incubated for 16 hours. 5 μl of compound solution or control vehicle is then added and the cells are further incubated as indicated. 100 μl of luciferase substrate solution is added and the plates are covered with TopSeal-A press-on adhesive sealing film (Packard Cat.No. 6005185) before measuring luminescence with a Packard Top Count Scintillation Counter at 22° C. The luciferase signal is stable for at least 90 min.
(§5) The THP-1 cell lines, clone No. 63 (containing PGL2_Neo30) and clone No. 53 (containing pGL2-Control) are grown, differentiated and stimulated with γIFN and LPS identical to normal THP-1 cells. Radicicol analog A is added 16 hours after the addition of LPS and cell extracts are then taken 8 hours later or as indicated. Luciferase activity is inhibited by 1 μM radicicol analog A on average by 50%±17%, in some cases inhibition was as great as 93%, whereas up to 5×10^−6M of radical analog A has no effects on the control clone No. 53, FIG. 3 (solid bars indicate clone No. 53, open bars clone No. 63).
(§6) A number of radicicol analogues are tested for their activity in the reporter assay substantially as described in the previous Examples.

[2] = test system: THP-1 clone No. 63 (pGL2_Neo30; luciferase mRNA with three tandem AUUUA motifs of the IL-1β 3′UTR); experiment: Luciferase reporter gene assay, clone No. 63 (pGL2_Neo30, with mRNA instability sequence); format: cell-based, human; set-up: Luciferase reporter gene assay, luciferase activity: unit not given here; settings: for Luciferase reporter gene assay, luciferase activity: clone 63; for inhibition at 1 µM: Homo sapiens, THP-1, clone No. 63
Description: as §1, §2, §3, §4, §5, §6

IL-1β = settings: THP-1 cells activated by IFN-γ and LPS; cited from earlier work
IL-1β mRNA = settings: THP-1 cells activated by IFN-γ and LPS; cited from earlier work
TNF-α mRNA = settings: THP-1 cells activated by IFN-γ and LPS; cited from earlier work
IL-6 mRNA = settings: THP-1 cells activated by IFN-γ and LPS; cited from earlier work

Structure (SMILES)	Luciferase reporter gene assay, luciferase activity ([1]; 0.5 μM)	Luciferase reporter gene assay, luciferase activity ([1]; 1 μM)	Luciferase reporter gene assay, luciferase activity ([1]; 5 μM)	Luciferase reporter gene assay, luciferase activity ([2]; 0.5 μM)	Luciferase reporter gene assay, luciferase activity ([2]; 1 μM)	Luciferase reporter gene assay, luciferase activity ([2]; 5 μM)	Effect on luciferase activity of control clone ([1]; clone No. 53, up to 5×10^−6M)	Secretion of IL-1β (IL-1β)	Time of degradation of IL-1β mRNA to undetectable levels (IL-1β mRNA) [h]	Time of degradation of TNF-α mRNA to undetectable levels (TNF-α mRNA) [h]	inhibition at 1 µM ([2]; 1 μM, added 16 h after LPS, extracts 8 h later, read-out: Inhibition of luciferase activity, on average) [%]	inhibition at 1 µM ([2]; 1 μM, read-out: Inhibition of luciferase activity, greatest inhibition in some cases) [%]	Time of degradation of IL-6 mRNA to undetectable levels (IL-6 mRNA) [h]
COc1cc(O)c2c(c1OC)/C=C/C[C@H](O)[C@H](O)C(=O)/C=C\C[C@H](C)OC2=O [drawing 13]	136	140	108	69	32	9							
COc1cc(O)c2c(c1)/C=C/CC(O)C(O)C(=O)/C=C\CC(C)OC2=O (stereo not shown)	114	105	107	97	88	87							
COc1cc(O)c2c(c1OC)/C=C/C[C@H](O)[C@H](O)C(=O)/C=C\C[C@H](C)OC2=O [radicicol analog A]							no effects	inhibited the secretion of IL-1β	5 to 8	5 to 8	50	93	5 to 8
C[C@@H]1C[C@H]2O[C@@H]2/C=C\C=C\C(=O)Cc2c(Cl)c(O)cc(O)c2C(=O)O1	68	51	40	42	18	3							
COc1cc(O)c2c(c1OC)/C=C/C[C@H](O)[C@H](O)C(=O)/C=C/C[C@H](C)OC2=O	97	91	55	96	94	7							
COc1cc(O)c2c(c1)/C=C/CC(O)C(O)C(=O)CCCC(C)OC2=O (stereo not shown)	103	122	104	107	93	70							
C[C@@H]1C[C@H]2O[C@@H]2CCCCC(=O)Cc2c(Cl)c(O)cc(O)c2C(=O)O1	99	77	69	88	64	57							
C[C@@H]1C[C@H]2O[C@@H]2CCCCC(=O)Cc2cc(O)cc(O)c2C(=O)O1	83	81	70	80	66	61							
